Drawing on patent US20130109721A1, “FAAH Inhibitors” (Ironwood Pharmaceuticals, Inc., priority 2009, published 2013), this text covers IC50 for ten molecules.

Some results are limits rather than exact numbers.

The assay addresses T1, FAAH (Rattus norvegicus, UniProt P97612).
T1 construct: For assay of FAAH activity in rat brain membrane (RBM) homogenates; tissue Charles River; host or cells: rat (CD strain) brain membrane homogenate
T1 sequence (P97612 1-579): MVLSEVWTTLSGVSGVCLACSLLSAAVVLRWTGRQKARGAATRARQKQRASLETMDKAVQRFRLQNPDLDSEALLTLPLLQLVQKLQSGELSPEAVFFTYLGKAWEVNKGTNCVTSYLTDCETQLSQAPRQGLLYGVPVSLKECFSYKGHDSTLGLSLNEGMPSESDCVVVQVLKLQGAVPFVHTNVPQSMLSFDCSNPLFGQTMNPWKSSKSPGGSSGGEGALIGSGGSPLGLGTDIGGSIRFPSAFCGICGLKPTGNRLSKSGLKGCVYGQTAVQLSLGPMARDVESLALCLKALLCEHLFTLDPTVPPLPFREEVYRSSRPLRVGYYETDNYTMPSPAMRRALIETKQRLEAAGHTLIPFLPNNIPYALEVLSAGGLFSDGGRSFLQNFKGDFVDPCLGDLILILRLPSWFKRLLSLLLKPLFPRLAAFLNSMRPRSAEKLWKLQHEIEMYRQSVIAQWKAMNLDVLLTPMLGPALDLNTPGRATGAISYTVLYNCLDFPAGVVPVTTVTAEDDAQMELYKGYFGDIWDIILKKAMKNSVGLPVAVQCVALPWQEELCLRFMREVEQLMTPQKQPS
In words: FAAH inhibition, rat brain membrane homogenate assay. In kind it is biochemical. Particulars: average; FAAH extracted from rat brain homogenate; read-out: Rat Brian Extract IC50. Here is the method:
Adult rats (Charles River CD strain, female, 200 g) were anaesthetized with isofluorane and rapidly decapitated. Each brain was quickly removed and chilled in tubes (3 brains per tube) on ice. About 25 mL of “homogenization buffer” (20 mM HEPES buffer, pH 7.0, with 1 mM MgCl2) was added to 15 to 20 g of brain. The brains were homogenized on ice for 1 minute using an Omni GLH homogenizer (Omni International, Marietta, Ga.). The homogenates were then transferred to three centrifuge tubes and centrifuged at 36,500 g for 20 minutes at 4° C. The supernatant was discarded and each pellet was re-suspended in 25 mL homogenization buffer. The re-suspended material was again centrifuged (36,500 g, 20 minutes at 4° C.). Pellets were combined by resuspension in 10 mL of homogenization buffer and incubated in a 37° C. water bath for 15 minutes. The tubes were then placed on ice for 5 minutes followed by centrifugation at 36,500 g for 20 minutes at 4° C. The supernatant was discarded and the membrane pellets were then re-suspended in 40 mL of “resuspension buffer” (50 mM Tris-HCl buffer, pH 7.4, containing 1 mM EDTA and 3 mM MgCl2). A Bradford Protein assay was performed to determine protein concentration. The protein was aliquotted into screw cap Cryo tubes each containing ˜400 μL, flash frozen in liquid nitrogen and stored at −80° C. until used for the assay. A similar protocol was used to obtain brain membrane homogenates from mice.
FAAH activity was assayed in the respective homogenates described herein (Rat brain, Mouse brain or Human brain) for certain exemplary substrate compounds using a modification of the method of Omeir et al. (1995 Life Sci 56:1999) and Fowler et al. (1997 J. Pharmacol Exp Ther 283:729). For assay of FAAH activity in rat brain membrane (RBM) homogenates, RBM homogenates (7 μg protein in 20 μL final volume of 10 mM Tris pH 6.5) were mixed with 180 μL of a mixture of the following: 2.0 μM unlabelled anandamide, 0.03 μCi radio labeled anandamide [ethanolamine 1-^3H] (40-60 Cis/mmol, product number ART-626, American Radiolabeled Chemicals, St. Louis, Mo.), 1 mg/mL Bovine Serum Albumin (fatty acid-free BSA, electrophoresis grade, Sigma, St. Louis, Mo.), 10 mM Tris-HCl (pH 6.5), and 1 mM EDTA in the presence and absence of test compounds (vehicle was DMSO at a final concentration of 1%) and incubated for 10 minutes at 37° C. Samples were placed on ice to terminate the reactions.
^3H-ethanolamine product and un-reacted ^3H-anandamide substrate were then separated either: (1) by using chloroform/methanol extraction or (2) by passing the reaction mixture through a glass fiber filter containing activated charcoal. Samples were extracted with chloroform/methanol by adding 0.4 mL of chloroform/methanol (1:1 v/v), vigorously mixing the samples, and separating the aqueous and organic phases by centrifugation. Radioactivity (corresponding to FAAH-catalyzed breakdown of ^3H-anandamide) found in aliquots (0.2 mL) of the aqueous phase was determined by liquid scintillation counting with quench correction. IC50 values were determined as described by Jonsson et al. (2001 Br. J. Pharmacol. 133:1263). Alternatively, reactions were purified using a modification of the solid-phase extraction method described by Wilson et al (2003 Anal. Biochem. 318:270). This method was modified as follows: after reactions were incubated at 37° C. for 10 minutes and chilled on ice, the reaction mixtures were acidified by adding 10 μL of sodium phosphate solution [0.5M (pH 2.0)]. Next, 90 μL aliquots of the acidified reaction mixtures were applied to activated charcoal (that had been previously washed with methanol as described by Wilson et al. (supra)) containing 80 μL of water on top of a glass fiber filter, centrifuged, and the radioactivity in the eluate was counted as described previously by Wilson et al. (supra). […]
In the case of `COc1ccc(Cn2c(C)cc(C(=O)C(=O)Nc3ccnc(OC)c3)c2C)cc1` [Compound I-22, 2-(1-(4-methoxybenzyl)-2,5-dimethyl-1H-pyrrol-3-yl)-N-(2-methoxypyridin-4-yl)-2-oxoacetamide], the IC50 (commonly the point on the concentration scale where inhibition reaches its midpoint) is 1770 nM.

Turning to `COc1cc(NC(=O)C(=O)c2c3c(n(Cc4ccc(Cl)cc4)c2C)CCCC3)ccn1` [Compound I-18, 2-(1-(4-chlorobenzyl)-2-methyl-4,5,6,7-tetrahydro-1H-indol-3-yl)-N-(2-methoxypyridin-4-yl)-2-oxoacetamide], the IC50 came to 1440 nM.

For `COc1cc(NC(=O)C(=O)c2cc(C)n(Cc3ccc(Cl)cc3Cl)c2C)ccn1` [Compound I-21, 2-(1-(2,4-dichlorobenzyl)-2,5-dimethyl-1H-pyrrol-3-yl)-N-(2-methoxypyridin-4-yl)-2-oxoacetamide], the IC50 was determined as 1 nM.

As to `Cc1c(C(=O)C(=O)Nc2cccc(Cl)c2)c(-c2ccccc2)c(C)n1Cc1ccc(Cl)cc1` [Compound I-20, 2-(1-(4-chlorobenzyl)-2,5-dimethyl-4-phenyl-1H-pyrrol-3-yl)-N-(3-chlorophenyl)-2-oxoacetamide], the IC50 was 1040 nM.

Regarding `Cc1cc(C(=O)C(=O)Nc2cccc(Cl)c2)c(-c2ccccc2)n1Cc1ccc(Cl)cc1` [Compound I-24, 2-(1-(4-chlorobenzyl)-5-methyl-2-phenyl-1H-pyrrol-3-yl)-N-(3-chlorophenyl)-2-oxoacetamide], the IC50 was > 5000 nM.

For `COc1cc(NC(=O)C(=O)c2cc(C)n(Cc3ccc(Cl)cc3)c2-c2ccccc2)ccn1` [Compound I-23, 2-(1-(4-chlorobenzyl)-5-methyl-2-phenyl-1H-pyrrol-3-yl)-N-(2-methoxypyridin-4-yl)-2-oxoacetamide], the IC50 was determined as 185 nM.

Turning to `Cc1c(C(=O)C(=O)Nc2ccncc2)cc(-c2ccccc2)n1Cc1ccc(Cl)cc1` [Compound I-26, 2-(1-(4-chlorobenzyl)-2-methyl-5-phenyl-1H-pyrrol-3-yl)-2-oxo-N-(pyridin-4-yl)acetamide], the IC50 is > 5000 nM.

As for `COc1cc(NC(=O)C(=O)c2c(-c3ccccc3)c(C)n(Cc3ccc(Cl)cc3)c2C)ccn1` [Compound I-19, 2-(1-(4-chlorobenzyl)-2,5-dimethyl-4-phenyl-1H-pyrrol-3-yl)-N-(2-methoxypyridin-4-yl)-2-oxoacetamide], the IC50 turned out to be 5 nM.

As to `Cc1c(C(=O)C(=O)Nc2cccc(Cl)c2)c2c(n1Cc1ccc(Cl)cc1)CCCC2` [Compound I-16, 2-(1-(4-chlorobenzyl)-2-methyl-4,5,6,7-tetrahydro-1H-indol-3-yl)-N-(3-chlorophenyl)-2-oxoacetamide], the IC50 stood at 4 nM.

Regarding `Cc1c(C(=O)C(=O)Nc2cccc(Cl)c2)cc(-c2ccccc2)n1Cc1ccc(Cl)cc1` [Compound I-25, 2-(1-(4-chlorobenzyl)-2-methyl-5-phenyl-1H-pyrrol-3-yl)-N-(3-chlorophenyl)-2-oxoacetamide], the IC50 came to 28 nM.
